Results on 3 compounds are retold here after ChEMBL document CHEMBL5352434, “Design, synthesis, and biological evaluation of ocotillol derivatives fused with 2-aminothiazole via A-ring as modulators of P-glycoprotein-mediated multidrug resistance” (Eur J Med Chem, 2022).

Data set [1] in a line: Cytotoxicity against multi-drug resistance human KBV cells assessed as cell survival in presence of 5 uM (20S,24R)-Epoxy-3-beta-N-glycyl-[3,2-b]thiazole-dammarane-12-beta,25-diol incubated for 72 hrs by MTT assay. Format: functional, cell-based. (Formazan colour is commonly taken as a measure of viable cells.)
Data set [2] in a line: Cytotoxicity against multi-drug resistance human KBV cells assessed as cell survival in presence of Tariquidar incubated for 72 hrs by MTT assay. Format: functional, cell-based.
The nature of data set [3]: Cytotoxicity against multi-drug resistance human KBV cells assessed as cell survival in presence of Verapamil incubated for 72 hrs by MTT assay. Format: functional, cell-based.
The nature of data set [4]: Cytotoxicity against multi-drug resistance human KBV cells assessed as cell survival in presence of 10 uM (20S,24R)-Epoxy-3-beta-N-glycyl-[3,2-b]thiazole-dammarane-12-beta,25-diol incubated for 72 hrs by MTT assay. Format: functional, cell-based.
Data set [5] is described as follows: Cytotoxicity against multi-drug resistance human KBV cells assessed as cell survival incubated for 72 hrs by MTT assay. Format: functional, cell-based.
The subject of another data set is KBV. The data set can be described thus: Antitumor activity against human MDR KBV cells xenografted in BALB/c nude mouse assessed as change in tumor volume at 30 mg/kg every 3 days for 18 days. The note with it: time 18.0 day. The class given is functional, organism-based.
Data set [6] can be described thus: Toxicity in BALB/c nude mouse xenografted with human MDR KBV cells assessed as change in body weight administered at 30 mg/kg every 3 days for 18 days. The class given is organism-based. The note with it: in vivo, 432 h, time 18 day. Background: In xenograft studies the graft and the host belong to different species.
Data set [7] is described as follows: Cytotoxicity against multi-drug resistance human KBV cells assessed as cell survival rate at 10 uM in presence of 100 nM Paclitaxel incubated for 72 hrs by MTT assay. The class given is functional. The note with it: read-out: Survival.

The source made the active and inactive calls. The calls are words filed in the database; no cut-off is given here.

A word on the IC50: it is the concentration at which inhibition is half-maximal. With `CC[C@]1(O)C[C@H]2CN(CCc3c([nH]c4ccccc34)[C@@](C(=O)OC)(c3cc4c(cc3OC)N(C=O)[C@H]3[C@@](O)(C(=O)OC)[C@H](OC(C)=O)[C@]5(CC)C=CCN6CC[C@]43[C@@H]65)C2)C1` [VINCRISTINE], the half-maximal inhibitory concentration (IC50) worked out at 13.7 nM in data set [1]; 1.5 nM in data set [2]; 1.63 nM in data set [3]; 1.18 nM in data set [4]; 559 nM in data set [5].
For `O=C1c2c(O)ccc(O)c2C(=O)c2c(NCCNCCO)ccc(NCCNCCO)c21` [MITOXANTRONE], the IC50 was found to be 165 nM in data set [1]; 90 nM in data set [2]; 97.5 nM in data set [3]; 61.9 nM in data set [4]; 299 nM in data set [5].
`CC(=O)O[C@H]1C(=O)[C@@]2(C)[C@H]([C@H](OC(=O)c3ccccc3)[C@]3(O)C[C@H](OC(=O)[C@H](O)[C@@H](NC(=O)c4ccccc4)c4ccccc4)C(C)=C1C3(C)C)[C@]1(OC(C)=O)CO[C@@H]1C[C@@H]2O` [PACLITAXEL]: the IC50 is 58.5 nM in data set [1]; 2.16 nM in data set [2]; 9.66 nM in data set [3]; 2.17 nM in data set [4]; 788 nM in data set [5]. The result in the data set on KBV was inactive. Moreover, the Activity result in data set [6] is given as “Non-Toxic”. Also, the viability at 10 µM in data set [7] came out at 99.3%.
